From paper PMC8167103, “Regulation of Bcl-XL by non-canonical NF-κB in the context of CD40-induced drug resistance in CLL” (Cell Death and Differentiation, 2021)

Target: T1, NIK (Homo sapiens, UniProt Q99558)
T1 construct: gene MAP3K14
Experiment: Kinase-Glo luminescence kinase assay with recombinant human active NIK, myelin basic protein and […] ATP; IC50 converted to Ki
Format: biochemical

T1 sequence (Q99558 whole entry): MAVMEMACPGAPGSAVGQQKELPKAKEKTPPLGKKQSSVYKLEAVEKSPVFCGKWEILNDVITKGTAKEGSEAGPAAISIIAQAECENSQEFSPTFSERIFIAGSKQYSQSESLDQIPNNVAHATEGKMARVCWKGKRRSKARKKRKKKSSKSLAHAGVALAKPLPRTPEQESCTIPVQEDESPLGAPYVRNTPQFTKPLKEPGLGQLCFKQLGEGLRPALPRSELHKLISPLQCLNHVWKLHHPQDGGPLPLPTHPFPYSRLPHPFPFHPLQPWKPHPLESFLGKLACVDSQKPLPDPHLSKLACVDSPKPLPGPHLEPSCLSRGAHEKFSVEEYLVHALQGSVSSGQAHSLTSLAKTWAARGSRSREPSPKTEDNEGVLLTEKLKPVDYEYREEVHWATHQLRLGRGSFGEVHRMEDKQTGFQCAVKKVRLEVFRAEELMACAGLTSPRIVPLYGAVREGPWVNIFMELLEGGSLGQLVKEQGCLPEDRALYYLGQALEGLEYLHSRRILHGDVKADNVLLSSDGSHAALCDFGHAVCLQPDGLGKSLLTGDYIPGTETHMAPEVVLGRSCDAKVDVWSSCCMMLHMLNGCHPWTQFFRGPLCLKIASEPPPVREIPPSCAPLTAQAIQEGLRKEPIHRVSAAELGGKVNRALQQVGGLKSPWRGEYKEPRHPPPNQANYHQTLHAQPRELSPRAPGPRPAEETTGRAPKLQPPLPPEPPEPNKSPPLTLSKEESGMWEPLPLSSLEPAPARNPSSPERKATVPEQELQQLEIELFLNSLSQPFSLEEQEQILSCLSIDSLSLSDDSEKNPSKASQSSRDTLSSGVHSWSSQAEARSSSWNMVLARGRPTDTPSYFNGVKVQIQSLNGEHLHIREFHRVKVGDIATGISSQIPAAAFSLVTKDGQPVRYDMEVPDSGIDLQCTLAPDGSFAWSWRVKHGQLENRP

Ki: 0.025 µM
SMILES: CC(C)(O)C#Cc1ccc2c(c1)N(c1ccnc(N)n1)CC2 [CW15337, 4-(1-(2-aminopyrimidin-4-yl)indolin-6-yl)-2-methylbut-3-yn-2-ol]
